In one assay the test system is RAW264.7. Description: Antiinflammatory activity in mouse RAW264.7 cells assessed as inhibition of LPS-induced NO production preincubated for 3 hrs followed by LPS addition measured after 24 hrs by Griess assay. The assay is classed as functional, cell-based. For orientation: Nitrite, measured by Griess reagent, commonly stands in for NO production.
Another assay deals with T1, Hexokinase-2 (Homo sapiens, UniProt P52789).
T1 sequence (P52789 whole entry): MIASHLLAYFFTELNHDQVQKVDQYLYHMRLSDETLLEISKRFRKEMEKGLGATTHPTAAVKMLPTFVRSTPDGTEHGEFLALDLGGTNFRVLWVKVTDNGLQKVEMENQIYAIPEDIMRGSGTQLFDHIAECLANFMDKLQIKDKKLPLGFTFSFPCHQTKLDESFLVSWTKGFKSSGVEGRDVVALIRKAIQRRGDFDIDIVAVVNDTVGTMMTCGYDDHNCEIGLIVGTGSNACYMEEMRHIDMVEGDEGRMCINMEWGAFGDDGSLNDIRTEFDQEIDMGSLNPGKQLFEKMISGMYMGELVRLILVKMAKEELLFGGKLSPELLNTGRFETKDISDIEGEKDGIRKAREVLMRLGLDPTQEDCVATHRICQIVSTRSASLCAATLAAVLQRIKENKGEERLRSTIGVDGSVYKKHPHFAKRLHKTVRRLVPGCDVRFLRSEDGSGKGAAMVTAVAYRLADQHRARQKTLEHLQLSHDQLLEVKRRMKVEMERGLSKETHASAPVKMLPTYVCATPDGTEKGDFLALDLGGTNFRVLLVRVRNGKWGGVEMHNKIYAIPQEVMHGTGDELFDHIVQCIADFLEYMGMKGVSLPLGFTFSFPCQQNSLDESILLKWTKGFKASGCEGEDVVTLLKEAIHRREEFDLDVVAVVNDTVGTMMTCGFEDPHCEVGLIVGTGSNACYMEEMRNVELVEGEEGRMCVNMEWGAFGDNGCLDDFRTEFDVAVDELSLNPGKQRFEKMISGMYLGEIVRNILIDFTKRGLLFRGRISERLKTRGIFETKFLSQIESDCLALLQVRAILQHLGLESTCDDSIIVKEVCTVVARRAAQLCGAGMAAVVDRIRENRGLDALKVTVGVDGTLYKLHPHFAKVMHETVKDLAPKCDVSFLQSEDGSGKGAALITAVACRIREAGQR
Description: Inhibition of recombinant human HK2 expressed in Escherichia coli BL21(DE3) using glucose as substrate preincubated for 10 mins followed by substrate addition in presence of ATP by G6PDH/NADP coupled assay.

pIC50: −log10 of the molar value.

In general, pIC50 refers to the negative decadic logarithm of the IC50, by convention in mol/L.

In the case of `C=C1CC[C@H]2[C@@](C)(CCC(=O)N[C@@]2(C)COC(=O)c2ccc([N+](=O)[O-])cc2)[C@@H]1/C=C/C1=CCOC1=O`, the pIC50 in the assay with RAW264.7 is 4.47; at Hexokinase-2 it was less than 4.30.

Consider `C=C1CC[C@H]2[C@@](C)(CCC(=O)N[C@@]2(C)COC(=O)[C@@H]2CCCN2)[C@@H]1/C=C/C1=CCOC1=O`, for which the pIC50 in the assay on RAW264.7 and at Hexokinase-2 was less than 4.30 throughout.

With `C=C1CC[C@H]2[C@@](C)(CC[C@@H](O)[C@@]2(C)NC=O)[C@@H]1/C=C/C1=CCOC1=O`, the negative-log IC50 (pIC50) in the assay on RAW264.7 and at Hexokinase-2 was less than 4.30 in each case.

`C=C1CC[C@H]2[C@@](C)(CCC(=O)N[C@@]2(C)COC(=O)c2ccccc2)[C@@H]1/C=C/C1=CCOC1=O`: the pIC50 in the assay with RAW264.7 and on Hexokinase-2 was less than 4.30 throughout.

On to `C=C1CC[C@H]2[C@@](C)(CC[C@@H](OC(=O)CN)[C@@]2(C)NC=O)[C@@H]1/C=C/C1=CCOC1=O`, for which the pIC50 in the assay on RAW264.7 and on Hexokinase-2 was less than 4.30 each time.

With `C=C1CC[C@H]2[C@@](C)(CC[C@@H](OC(=O)c3ccccc3)[C@@]2(C)NC=O)[C@@H]1/C=C/C1=CCOC1=O`, the pIC50 was 4.30 with RAW264.7 and less than 4.30 on Hexokinase-2.

Regarding `C=C1CC[C@H]2[C@@](C)(CCC(=O)N[C@@]2(C)COC(=O)[C@H](N)CC(C)C)[C@@H]1/C=C/C1=CCOC1=O`, the pIC50 in the assay with RAW264.7 and on Hexokinase-2 was less than 4.30 each time.

As to `C=C1CC[C@H]2[C@@](C)(CC[C@@H](OC(=O)[C@H]3CCCN3)[C@@]2(C)NC=O)[C@@H]1/C=C/C1=CCOC1=O`, the values for the pIC50 in the assay with RAW264.7 and at Hexokinase-2 were less than 4.30 and 4.58, respectively.

As to `C=C1CC[C@H]2[C@@](C)(CC[C@@H](OC(=O)CNC)[C@@]2(C)NC=O)[C@@H]1/C=C/C1=CCOC1=O`, the pIC50 with RAW264.7 and on Hexokinase-2 was less than 4.30 in each case.

In the case of `C=C1CC[C@H]2[C@@](C)(CC[C@@H](OC(=O)CCCC[C@@H]3CCSS3)[C@@]2(C)NC=O)[C@@H]1/C=C/C1=CCOC1=O`, the pIC50 with RAW264.7 and on Hexokinase-2 was less than 4.30 in each case.

Turning to `C=C1CC[C@@H]2[C@](C)(CO)[C@H](O)CC[C@@]2(C)[C@@H]1C/C=C1/C(=O)OC[C@H]1O` [ANDROGRAPHOLIDE], the figures for the pIC50 in the assay with RAW264.7 and at Hexokinase-2 were 4.84 and less than 4.30, respectively.

For `C=C1CC[C@H]2[C@@](C)(CCC(=O)N[C@@]2(C)CO)[C@@H]1/C=C/C1=CCOC1=O`, the pIC50 in the assay with RAW264.7 and at Hexokinase-2 was less than 4.30 each time.

Turning to `C=C1CC[C@H]2[C@@](C)(CCC(=O)N[C@@]2(C)COC(=O)c2cccnc2)[C@@H]1/C=C/C1=CCOC1=O`, the pIC50 in the assay on RAW264.7 and at Hexokinase-2 was less than 4.30 in each case.

As to `C=C1CC[C@H]2[C@@](C)(CCC(=O)N[C@@]2(C)COC(=O)c2ccccc2[N+](=O)[O-])[C@@H]1/C=C/C1=CCOC1=O`, the pIC50 in the assay on RAW264.7 and at Hexokinase-2 was less than 4.30 in each case.

In the case of `C=C1CC[C@H]2[C@@](C)(CC[C@@H](OC(=O)c3cccnc3)[C@@]2(C)NC=O)[C@@H]1/C=C/C1=CCOC1=O`, the pIC50 in the assay with RAW264.7 and on Hexokinase-2 was less than 4.30 each time.

For the molecule `C=C1CC[C@H]2[C@@](C)(CC[C@@H](OC(=O)c3ccc([N+](=O)[O-])cc3)[C@@]2(C)NC=O)[C@@H]1/C=C/C1=CCOC1=O`, the pIC50 in the assay on RAW264.7 and at Hexokinase-2 was less than 4.30 throughout.

For `C[C@]12CCC(=O)C=C1CC[C@@H]1[C@@H]2[C@@H](O)C[C@@]2(C)[C@H]1CC[C@]2(O)C(=O)CO` [HYDROCORTISONE], the pIC50 in the assay on RAW264.7 was 4.28.

For `C=C1CC[C@H]2[C@@](C)(CC[C@@H](OC(=O)c3ccccc3[N+](=O)[O-])[C@@]2(C)NC=O)[C@@H]1/C=C/C1=CCOC1=O`, the pIC50 with RAW264.7 and at Hexokinase-2 was less than 4.30 in each case.

Take `C=C1CC[C@H]2[C@@](C)(CC[C@@H](OC(=O)C(N)CC(C)C)[C@@]2(C)NC=O)[C@@H]1/C=C/C1=CCOC1=O` (single isomer, unassigned): the pIC50 with RAW264.7 and at Hexokinase-2 was less than 4.30 throughout.

Consider `C=C1CC[C@H]2[C@@](C)(CC[C@@H](OC(=O)[C@@H](N)Cc3ccccc3)[C@@]2(C)NC=O)[C@@H]1/C=C/C1=CCOC1=O`, for which the pIC50 in the assay with RAW264.7 and at Hexokinase-2 was less than 4.30 throughout.

Values taken from ChEMBL document CHEMBL4346716, “Synthesis of novel andrographolide beckmann rearrangement derivatives and evaluation of their HK2-related anti-inflammatory activities” (Eur J Med Chem, 2019).
